In article PMC9454246, “The PqsE Active Site as a Target for Small Molecule Antimicrobial Agents against Pseudomonas aeruginosa” (Biochemistry, 2022):

Tests used:
PqsE [1] = target: T1, PqsE (Pseudomonas aeruginosa, UniProt P20581); details: in words; cited from earlier work
T1 construct: made in house

PqsE–RhlR interaction = target: T2, PqsE–RhlR interaction (Pseudomonas aeruginosa, UniProt P20581); assay: PqsE–RhlR interaction (in vitro pull-down); type: binding; details: in words
T2 construct: made in house
Description: (§1) 6xHis-PqsE proteins were purified for biochemical assays (tagged) and crystallography (tag removed), as described previously.[24] Enzyme activities of purified 6xHis-PqsE variants were measured as previously reported with MU-butyrate as the substrate.[25] Fluorescence polarization assays with the BB562 active site probe were performed as described.[24] The melting temperature (Tm) of each purified 6xHis-PqsE variant was measured using DSF as described previously.[24] Interaction between PqsE and RhlR proteins in vitro was measured as described previously using pull-down assays.[24] Pyocyanin production by P. aeruginosa PA14 strains carrying pqsE variants on the pUCP18 plasmid was measured as described.[24] The ability of PqsE variants to increase RhlR transcription factor activity in an E. coli reporter assay was assessed as previously described.[24] All small molecule syntheses and characterization are described in the Supporting Information.

PqsE [2] = target: T1, PqsE; assay: Competitive fluorescence polarization with the BB562 active site probe; details: competition with BB562 active site probe for binding to PqsE; one experiment performed in triplicate
From the text: (a) Structures of the precursor molecules BB391 and BB393 and the hybrid derivative BB580. Positions denoted 1, 2, and 3 were derivatized to explore the binding affinity for the PqsE active site. […] Polarization value for PqsE-BB562 in the absence of a competitor is defined as 100% probe bound. All polarization values were background-subtracted by the reading for the probe in the absence of PqsE (background fluorescence). […] Both the BB584 molecule and key PqsE amino acid sidechains are shown as sticks. Amino acid sidechain carbons are depicted in gray and BB584 carbons are shown in tan. Iron atoms and water molecules are shown as orange and green spheres, respectively. Oxygen and nitrogen atoms are in red and blue, respectively. Hydrogen bonds are shown as dotted yellow lines.
as §1, with “Information. […]” for “Information.”
a Design of Hybrid Scaffold b Core Aromatic Group […]
Engaging Hydrophobic Groove […]
the amide bond orientation. b) Optimization of “position 2”, the core aromatic group. c) Optimization of “position 3”, the hydrophobic tail. Competition curves with the BB562 active site fluorescent probe were f it from the average of triplicates and erro r bars represent standard deviation s. Polarization value for PqsE-BB562 in the absence of competitor is defined as 100% Probe Bound. All polarization values were background-subtracted by the reading for the probe in the absence of PqsE (background fluorescence).

PqsE(D73A) = PqsE(D73A) (Pseudomonas aeruginosa, UniProt P20581, D73A); details: read-out: BB562 Binding Kapp; PqsE variant D73A; 2 µM MnCl2
Description: (§2) (a) Structure of PqsE(E182W) (blue) overlaid with that of WT PqsE (PDB: 2Q0I, gray). The active site iron atoms are shown in orange. […] (b) Structure of PqsE(E182W/E280A) (maroon) overlaid with that of WT PqsE (as in a). In panels a and b, residue E280 is shown in stick representation. […] Kapp was determined in two independent experiments performed in triplicate. (d) Hydrolysis of 4-methylumbelliferyl butyrate (MU-butyrate) by the designated purified PqsE proteins. Values are represented as % activity of WT PqsE protein. Results are the average of two independent experiments performed in triplicate. Error bars represent standard deviations. (e) First derivative plots (dF/dT is defined as the change in SYPRO Orange fluorescence divided by change in temperature) of melting curves for the designated PqsE proteins. The peak of each curve is defined as the Tm of that protein.
as §1
(§3) a Stability of PqsE Proteins WT
(§4) Hydrolysis of MU-butyrate
(§5) Fig. S3. Biochemical characterization of purified PqsE variants. a) First derivative plots of melt curves for
(§6) PqsE prot eins. All proteins were tested at 5 µM with 200 µM MnCl 2. dF/dT indicates the change in SYPRO
(§7) Orange fluorescence divided by the change in tempera ture.
(§8) Results are the average of two independent experiments performed in triplicate.
(§9) Error bars represent standard deviations.

PqsE(NI) = PqsE(NI) (Pseudomonas aeruginosa, UniProt P20581, R243A/R246A/R247A); details: read-out: BB562 Binding Kapp; PqsE variant NI (R243A/R246A/R247A); 2 µM MnCl2
Description: as §2, §1, §3, §4, §5, §6, §7, §8, §9

PqsE(D73A/E182W) = PqsE(D73A/E182W) (Pseudomonas aeruginosa, UniProt P20581, D73A/E182W); details: read-out: BB562 Binding Kapp; PqsE variant D73A/E182W; 2 µM MnCl2; error ND (could not be calculated)
Description: as §2, §1, §3, §4, §5, §6, §7, §8, §9

PqsE(NI/E280A) = PqsE(NI/E280A) (Pseudomonas aeruginosa, UniProt P20581, E280A/R243A/R246A/R247A); details: read-out: BB562 Binding Kapp; PqsE variant NI/E280A; 2 µM MnCl2
Description: as §2, §1, §3, §4, §5, §6, §7, §8, §9

PqsE(D73A/NI) = PqsE(D73A/NI) (Pseudomonas aeruginosa, UniProt P20581, D73A/R243A/R246A/R247A); details: read-out: BB562 Binding Kapp; PqsE variant D73A/NI; 2 µM MnCl2; error ND (could not be calculated)
Description: as §2, §1, §3, §4, §5, §6, §7, §8, §9

PqsE(E182W) = PqsE(E182W) (Pseudomonas aeruginosa, UniProt P20581, E182W)
Description: as §2, §1, §3, §4, §5, §6, §7, §8, §9

WT PqsE = WT PqsE (Pseudomonas aeruginosa, UniProt P20581); details: read-out: BB562 Binding Kapp, 2 µM MnCl2, two independent experiments in triplicate
Description: as §2, §1, §3, §4, §5, §6, §7, §8, §9

PqsE(E182W/E280A) = PqsE(E182W/E280A) (Pseudomonas aeruginosa, UniProt P20581, E182W/E280A)
Description: as §2, §1, §3, §4, §5, §6, §7, §8, §9

PqsE(E182W/NI) = PqsE(E182W/NI) (Pseudomonas aeruginosa, UniProt P20581, E182W/R243A/R246A/R247A); details: read-out: BB562 Binding Kapp; PqsE variant E182W/NI; 2 µM MnCl2; error ND (could not be calculated)
Description: as §2, §1, §3, §4, §5, §6, §7, §8, §9

PqsE(E280A) = PqsE(E280A) (Pseudomonas aeruginosa, UniProt P20581, E280A); details: read-out: BB562 Binding Kapp; PqsE variant E280A; 2 µM MnCl2
Description: as §2, §1, §3, §4, §5, §6, §7, §8, §9

PqsE(D73A/E280A) = PqsE(D73A/E280A) (Pseudomonas aeruginosa, UniProt P20581, D73A/E280A); details: read-out: BB562 Binding Kapp; PqsE variant D73A/E280A; 2 µM MnCl2
Description: as §2, §1, §3, §4, §5, §6, §7, §8, §9

O=C(Nc1cccc(-c2ccn[nH]2)c1)c1cccc2cn[nH]c12 [BB391]
competition with the BB562 active site probe for binding to PqsE (PqsE [1]): mid-nanomolar | inhibition/disruption of the PqsE–RhlR interaction (PqsE–RhlR interaction): none of the three compounds disrupt the PqsE–RhlR interaction | EC50 (PqsE [2]): 160 ± 54 nM

O=C(NCCCn1cc(-c2ccc(NC(=O)c3cccc4cn[nH]c34)cc2)nn1)c1ccc2c(c1)C(=O)OC21c2ccc(O)cc2Oc2cc(O)ccc21 [BB562]
Kd (PqsE(D73A)): 507 ± 380 nM | Kd (PqsE(NI)): 428 ± 100 nM | Kd (PqsE(D73A/E182W)): 8.12 µM | Kd (PqsE(NI/E280A)): 669 ± 220 nM | Kd (PqsE(D73A/NI)): 564 nM | binding affinity for the active site fluorescent probe (PqsE(E182W); PqsE(E182W), in words, relative to WT PqsE): reduced binding affinity | Kd (PqsE(E182W); read-out: BB562 Binding Kapp, PqsE variant E182W, 2 µM MnCl2): 5.73 ± 4 µM | Kd (WT PqsE): 416 ± 170 nM | binding affinity for the active site fluorescent probe (PqsE(E182W/E280A); PqsE(E182W/E280A), in words, relative to WT PqsE): WT binding affinity | Kd (PqsE(E182W/E280A); read-out: BB562 Binding Kapp, PqsE variant E182W/E280A, 2 µM MnCl2): 418 ± 160 nM | Kd (PqsE(E182W/NI)): 4.33 µM | Kd (PqsE(E280A)): 210 ± 90 nM | Kd (PqsE(D73A/E280A)): 468 ± 300 nM

CCC(C)(CNC(=O)Nc1ccc(NC(=O)c2cccc3cn[nH]c23)nc1)N1CCOCC1 (stereo not drawn) [BB589]
EC50 (PqsE [2]): 608 ± 647 nM

CCC(C)(CNC(=O)Nc1ccc(C(=O)Nc2cccc3cn[nH]c23)cc1)N1CCOCC1 (stereo not drawn) [BB581]
EC50 (PqsE [2]): 281 nM

O=C(NCc1cnccn1)Nc1ccc(NC(=O)c2cccc3cn[nH]c23)cc1 [BB582]
EC50 (PqsE [2]): 302 ± 141 nM

O=C(NCc1ccccc1)Nc1ccc(NC(=O)c2cccc3cn[nH]c23)cc1 [BB583]
EC50 (PqsE [2]): 71 nM

CC(C)(C)CNC(=O)Nc1ccc(NC(=O)c2cccc3cn[nH]c23)cc1 [BB584]
inhibition/disruption of the PqsE–RhlR interaction (PqsE–RhlR interaction): none of the three compounds disrupt the PqsE–RhlR interaction | EC50 (PqsE [2]): 34 nM

CCC(C)(CNC(=O)Nc1cc(NC(=O)c2cccc3cn[nH]c23)[nH]n1)N1CCOCC1 (stereo not drawn) [BB586]
EC50 (PqsE [2]): > 1000 nM

CCC(C)(CNC(=O)Nc1ccc(NC(=O)c2cccc3cn[nH]c23)cc1)N1CCOCC1 (stereo not drawn) [BB580]
EC50 (PqsE [2]): 99 nM

CCC(C)(CNC(=O)Nc1ccc(C(=O)Nc2nccs2)cc1)N1CCOCC1 (stereo not drawn) [BB393]
competition with the BB562 active site probe for binding to PqsE (PqsE [1]): mid-nanomolar | inhibition/disruption of the PqsE–RhlR interaction (PqsE–RhlR interaction): none of the three compounds disrupt the PqsE–RhlR interaction | EC50 (PqsE [2]): 93 ± 29 nM

CCC(CNC(=O)Nc1ccc(NC(=O)c2cccc3cn[nH]c23)cc1)N1CCOCC1 (stereo not drawn) [BB587]
EC50 (PqsE [2]): 273 nM

CCC(C)(CNC(=O)Nc1cnc(NC(=O)c2cccc3cn[nH]c23)s1)N1CCOCC1 (stereo not drawn) [BB585]
EC50 (PqsE [2]): > 1000 nM

CC(CNC(=O)Nc1ccc(NC(=O)c2cccc3cn[nH]c23)cc1)N1CCOCC1 (stereo not drawn) [BB588]
EC50 (PqsE [2]): 290 nM
